Results published in ChEMBL document CHEMBL4177534, “Discovery and evaluation of 1H-pyrrolo[2,3-b]pyridine based selective and reversible small molecule BTK inhibitors for the treatment of rheumatoid arthritis” (Bioorg Med Chem Lett, 2017).

Key:
[1] = target: Serine/threonine-protein kinase B-raf (Homo sapiens) (UniProt P15056); test: Inhibition of recombinant human full length N-terminal GST-tagged BRAF expressed in baculovirus infected Sf9 cells assessed as change in enzyme activity at 1 uM in presence of 1 uM ATP relative to control; design: scale not given: the % may be the effect or the level left
[2] = target: Aurora kinase A (Homo sapiens) (UniProt O14965); test: Inhibition of recombinant full length N-terminal GST-tagged AURORA A (unknown origin) expressed in baculovirus infected Sf9 cells assessed as change in enzyme activity at 1 uM in presence of 2 uM ATP relative to control; design: scale not given: the % may be the effect or the level left
Sequence of Aurora kinase A (Homo sapiens) (O14965 whole entry): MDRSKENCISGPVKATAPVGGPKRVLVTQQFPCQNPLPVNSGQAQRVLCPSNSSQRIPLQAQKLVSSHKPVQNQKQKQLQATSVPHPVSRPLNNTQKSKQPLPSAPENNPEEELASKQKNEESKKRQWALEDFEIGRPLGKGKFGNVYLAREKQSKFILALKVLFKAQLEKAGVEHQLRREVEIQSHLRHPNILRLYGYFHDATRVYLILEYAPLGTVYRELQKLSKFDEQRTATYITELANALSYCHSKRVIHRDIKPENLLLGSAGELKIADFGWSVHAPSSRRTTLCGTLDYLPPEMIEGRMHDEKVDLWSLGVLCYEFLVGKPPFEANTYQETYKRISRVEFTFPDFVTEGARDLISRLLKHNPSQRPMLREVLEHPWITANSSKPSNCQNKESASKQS

[3] = target: Tyrosine-protein kinase JAK2 (Homo sapiens, UniProt O60674); test: Inhibition of JAK2 (unknown origin)
[4] = Volume of distribution at steady state in mouse at 3 mg/kg, iv; format: ADME, organism-based; details: in vivo, read-out: Vdss
[5] = target: Receptor-type tyrosine-protein kinase FLT3 (Homo sapiens) (UniProt P36888); test: Inhibition of recombinant human N-terminal GST-tagged FLT3 (571 to 993 residues) expressed in baculovirus infected Sf9 cells assessed as change in enzyme activity at 1 uM in presence of 2 uM ATP relative to control; design: scale not given: the % may be the effect or the level left
[6] = target: Cytoplasmic tyrosine-protein kinase BMX (Homo sapiens) (UniProt P51813); test: Inhibition of recombinant full length N-terminal GST-tagged BMX (unknown origin) expressed in baculovirus infected Sf9 cells assessed as change in enzyme activity at 1 uM in presence of 2 uM ATP relative to control; design: scale not given: the % may be the effect or the level left
Sequence of Cytoplasmic tyrosine-protein kinase BMX (Homo sapiens) (P51813 whole entry): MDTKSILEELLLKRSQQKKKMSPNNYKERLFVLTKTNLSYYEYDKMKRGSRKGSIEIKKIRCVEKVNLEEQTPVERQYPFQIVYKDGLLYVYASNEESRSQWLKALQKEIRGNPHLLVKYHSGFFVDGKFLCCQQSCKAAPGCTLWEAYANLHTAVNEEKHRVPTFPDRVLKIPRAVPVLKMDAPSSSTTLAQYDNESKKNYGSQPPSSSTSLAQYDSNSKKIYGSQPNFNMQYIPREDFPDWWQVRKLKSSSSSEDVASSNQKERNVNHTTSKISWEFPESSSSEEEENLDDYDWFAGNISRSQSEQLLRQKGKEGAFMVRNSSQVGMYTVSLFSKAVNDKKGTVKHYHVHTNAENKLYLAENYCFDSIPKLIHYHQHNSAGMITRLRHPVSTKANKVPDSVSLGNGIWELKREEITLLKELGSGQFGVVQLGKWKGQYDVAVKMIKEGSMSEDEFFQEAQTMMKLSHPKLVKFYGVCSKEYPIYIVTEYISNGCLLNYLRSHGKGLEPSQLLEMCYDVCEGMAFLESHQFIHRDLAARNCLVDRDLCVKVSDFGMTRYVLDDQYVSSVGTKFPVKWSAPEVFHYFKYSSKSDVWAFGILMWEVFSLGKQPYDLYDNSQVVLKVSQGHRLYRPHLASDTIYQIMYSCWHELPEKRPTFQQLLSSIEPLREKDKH

[7] = target: cAMP-dependent protein kinase catalytic subunit alpha (Homo sapiens) (UniProt P17612); test: Inhibition of recombinant human full length N-terminal GST-tagged PKACalpha expressed in baculovirus infected Sf9 cells assessed as change in enzyme activity at 1 uM in presence of 1 uM ATP relative to control; design: scale not given: the % may be the effect or the level left
[8] = target: Tyrosine-protein kinase Lck (Homo sapiens) (UniProt P06239); test: Inhibition of recombinant human full length N-terminal GST-tagged LCK expressed in baculovirus infected Sf9 cells assessed as change in enzyme activity at 1 uM in presence of 1 uM ATP relative to control; design: scale not given: the % may be the effect or the level left
Mus musculus [9] = test: Dose normalized AUC (0 to 24 hrs) in mouse at 10 mg/kg, po; format: ADME, organism-based; details: in vivo
[10] = Metabolic stability in mouse liver microsomes assessed as metabolism rate; format: ADME, microsome
[11] = target: T1, Tyrosine-protein kinase BTK (Mus musculus, UniProt P35991); test: Inhibition of mouse BTK assessed as decrease in anti-CD3epsilon antibody stimulated TCR mediated CD69 upregulation in whole blood preincubated for 1 hr followed by antibody challenge after 4 hrs by flow cytometry
T1 sequence (P35991 whole entry): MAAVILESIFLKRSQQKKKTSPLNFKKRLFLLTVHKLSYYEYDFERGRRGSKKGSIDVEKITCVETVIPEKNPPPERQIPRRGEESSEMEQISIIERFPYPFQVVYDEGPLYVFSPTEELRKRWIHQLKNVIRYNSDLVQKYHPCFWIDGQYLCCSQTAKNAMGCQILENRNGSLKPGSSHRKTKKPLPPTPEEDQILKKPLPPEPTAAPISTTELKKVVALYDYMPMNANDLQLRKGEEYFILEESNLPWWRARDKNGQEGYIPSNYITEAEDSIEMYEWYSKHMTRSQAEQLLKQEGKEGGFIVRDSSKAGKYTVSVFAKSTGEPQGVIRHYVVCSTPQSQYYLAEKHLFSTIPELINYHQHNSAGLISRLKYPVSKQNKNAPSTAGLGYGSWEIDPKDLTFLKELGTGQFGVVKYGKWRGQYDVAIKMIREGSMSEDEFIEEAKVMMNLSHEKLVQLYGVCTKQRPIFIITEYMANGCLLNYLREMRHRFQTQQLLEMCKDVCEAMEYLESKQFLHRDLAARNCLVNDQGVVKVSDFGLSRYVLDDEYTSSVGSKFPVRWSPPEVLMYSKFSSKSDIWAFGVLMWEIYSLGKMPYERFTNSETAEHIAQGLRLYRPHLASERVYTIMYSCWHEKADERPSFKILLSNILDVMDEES

[12] = target: Tyrosine-protein kinase ZAP-70 (Homo sapiens) (UniProt P43403); test: Inhibition of recombinant human full length N-terminal GST-tagged ZAP70 expressed in baculovirus infected Sf9 cells assessed as change in enzyme activity at 1 uM in presence of 2 uM ATP relative to control; design: scale not given: the % may be the effect or the level left
[13] = target: Tyrosine-protein kinase ITK/TSK (Homo sapiens, UniProt Q08881); test: Inhibition of recombinant human full length ITK preincubated for 10 mins followed by Tk-biotin peptide substrate addition after 60 mins by TR-FRET assay
[14] = target: Hepatocyte growth factor receptor (Homo sapiens) (UniProt P08581); test: Inhibition of recombinant human N-terminal GST-tagged MET (956 to end residues) expressed in baculovirus infected Sf9 cells assessed as change in enzyme activity at 1 uM in presence of 1 uM ATP relative to control; design: scale not given: the % may be the effect or the level left
Mus musculus [15] = test: Antiarthritic activity in DBA/1J mouse type-2 collagen-induced arthritis model assessed as reduction in joint histological score immunized with type-2 collagen on day 1 and day 21 followed by LPS challenge on day 28 subsequent compound administration po bid by hematoxylin and eosin staining based assay; format: functional, organism-based
[16] = target: Tyrosine-protein kinase TXK (Homo sapiens) (UniProt P42681); test: Inhibition of recombinant N-terminal GST-tagged TXK (unknown origin) expressed in baculovirus infected Sf9 cells assessed as change in enzyme activity at 1 uM in presence of 2 uM ATP relative to control; design: scale not given: the % may be the effect or the level left
[17] = Cmax in mouse at 10 mg/kg, po; format: ADME, organism-based; design: dose 10 mg/kg, route oral; details: in vivo
[18] = target: Tyrosine-protein kinase Tec (Homo sapiens) (UniProt P42680); test: Inhibition of recombinant full length N-terminal GST-tagged TEC (unknown origin) expressed in baculovirus infected Sf9 cells assessed as change in enzyme activity at 1 uM in presence of 2 uM ATP relative to control; design: scale not given: the % may be the effect or the level left
Sequence of Tyrosine-protein kinase Tec (Homo sapiens) (P42680 whole entry): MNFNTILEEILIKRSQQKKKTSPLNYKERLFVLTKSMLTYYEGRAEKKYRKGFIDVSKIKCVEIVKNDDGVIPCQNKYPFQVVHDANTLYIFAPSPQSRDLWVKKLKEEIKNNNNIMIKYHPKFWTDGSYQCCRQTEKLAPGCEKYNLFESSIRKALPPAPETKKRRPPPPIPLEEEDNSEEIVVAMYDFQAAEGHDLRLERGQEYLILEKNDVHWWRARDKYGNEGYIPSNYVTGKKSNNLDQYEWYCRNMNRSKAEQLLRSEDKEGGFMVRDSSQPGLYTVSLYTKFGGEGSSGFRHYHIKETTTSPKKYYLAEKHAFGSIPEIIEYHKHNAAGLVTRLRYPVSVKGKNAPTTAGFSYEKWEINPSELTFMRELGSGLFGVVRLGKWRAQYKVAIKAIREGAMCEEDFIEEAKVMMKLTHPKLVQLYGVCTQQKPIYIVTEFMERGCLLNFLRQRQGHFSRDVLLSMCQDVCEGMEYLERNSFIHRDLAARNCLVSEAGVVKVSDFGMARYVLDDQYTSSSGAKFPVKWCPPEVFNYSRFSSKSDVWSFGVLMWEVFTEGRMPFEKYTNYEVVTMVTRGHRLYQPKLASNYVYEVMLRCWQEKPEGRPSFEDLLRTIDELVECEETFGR

[19] = target: Serine/threonine-protein kinase Nek11 (Homo sapiens) (UniProt Q8NG66); test: Inhibition of recombinant human full length N-terminal GST-tagged NEK11 expressed in baculovirus infected Sf9 cells assessed as change in enzyme activity at 1 uM in presence of 2 uM ATP relative to control; design: scale not given: the % may be the effect or the level left
[20] = Clearance in mouse at 3 mg/kg, iv; format: ADME, organism-based; details: in vivo
Mus musculus [21] = test: Ex-vivo inhibition of BTK in C57BL/6J mouse assessed as anti-mouse IgD antibody stimulated BCR mediated CD69 level in whole blood isolated from 30 mg/kg, po bid treated mouse measured after 24 hrs post first dose by flow cytometry relative to control; format: functional; design: scale not given: the % may be the effect or the level left
[22] = target: Tyrosine-protein kinase JAK1 (Homo sapiens, UniProt P23458); test: Inhibition of JAK1 (unknown origin)
Sequence of Tyrosine-protein kinase JAK1 (P23458 whole entry): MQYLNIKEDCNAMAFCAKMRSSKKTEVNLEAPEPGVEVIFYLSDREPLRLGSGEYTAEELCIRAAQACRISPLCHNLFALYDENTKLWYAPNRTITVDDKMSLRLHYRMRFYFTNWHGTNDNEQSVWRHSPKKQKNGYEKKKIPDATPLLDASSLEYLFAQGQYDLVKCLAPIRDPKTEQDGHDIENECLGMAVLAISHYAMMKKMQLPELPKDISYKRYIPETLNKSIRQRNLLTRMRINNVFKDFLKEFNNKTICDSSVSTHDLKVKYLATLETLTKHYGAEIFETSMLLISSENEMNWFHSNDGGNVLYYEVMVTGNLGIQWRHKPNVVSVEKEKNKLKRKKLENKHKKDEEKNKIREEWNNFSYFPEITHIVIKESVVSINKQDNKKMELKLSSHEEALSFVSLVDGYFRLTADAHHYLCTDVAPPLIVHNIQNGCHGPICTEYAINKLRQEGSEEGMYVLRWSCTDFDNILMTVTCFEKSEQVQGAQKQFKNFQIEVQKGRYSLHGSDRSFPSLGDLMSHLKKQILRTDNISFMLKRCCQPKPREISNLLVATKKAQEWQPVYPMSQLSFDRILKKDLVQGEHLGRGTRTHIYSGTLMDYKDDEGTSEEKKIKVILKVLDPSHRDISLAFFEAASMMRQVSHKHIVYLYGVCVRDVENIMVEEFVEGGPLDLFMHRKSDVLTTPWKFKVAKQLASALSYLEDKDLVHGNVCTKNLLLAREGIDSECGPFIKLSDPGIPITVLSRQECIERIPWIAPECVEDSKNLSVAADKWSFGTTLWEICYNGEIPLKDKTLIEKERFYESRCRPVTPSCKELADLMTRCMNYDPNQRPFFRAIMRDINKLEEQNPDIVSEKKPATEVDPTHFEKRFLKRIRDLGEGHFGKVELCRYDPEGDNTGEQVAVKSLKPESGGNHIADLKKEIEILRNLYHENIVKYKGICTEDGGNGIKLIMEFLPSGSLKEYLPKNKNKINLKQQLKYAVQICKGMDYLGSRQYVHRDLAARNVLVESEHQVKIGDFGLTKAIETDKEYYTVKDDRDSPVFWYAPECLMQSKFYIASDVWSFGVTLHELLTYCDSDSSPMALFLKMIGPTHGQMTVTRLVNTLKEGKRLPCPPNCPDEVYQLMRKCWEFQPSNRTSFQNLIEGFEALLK

[23] = target: T1, Tyrosine-protein kinase BTK; test: Inhibition of C57BL/6J mouse BTK assessed as decrease in anti-mouse IgM antibody stimulated BCR mediated CD69 upregulation preincubated for 30 mins followed by antibody challenge after 18 to 24 hrs by flow cytometry
[24] = target: MAP kinase-activated protein kinase 3 (Homo sapiens) (UniProt Q16644); test: Inhibition of recombinant human full length N-terminal GST-tagged MAPKAPK3 expressed in baculovirus infected Sf9 cells assessed as change in enzyme activity at 1 uM in presence of 1 uM ATP relative to control; design: scale not given: the % may be the effect or the level left
[25] = target: Death-associated protein kinase 1 (Homo sapiens) (UniProt P53355); test: Inhibition of recombinant human N-terminal GST-tagged DAPK1 (1 to363 residues) expressed in baculovirus infected Sf9 cells assessed as change in enzyme activity at 1 uM in presence of 1 uM ATP relative to control; design: scale not given: the % may be the effect or the level left
Sequence of Death-associated protein kinase 1 (Homo sapiens) (P53355 whole entry, looked up, the tested form may be a part): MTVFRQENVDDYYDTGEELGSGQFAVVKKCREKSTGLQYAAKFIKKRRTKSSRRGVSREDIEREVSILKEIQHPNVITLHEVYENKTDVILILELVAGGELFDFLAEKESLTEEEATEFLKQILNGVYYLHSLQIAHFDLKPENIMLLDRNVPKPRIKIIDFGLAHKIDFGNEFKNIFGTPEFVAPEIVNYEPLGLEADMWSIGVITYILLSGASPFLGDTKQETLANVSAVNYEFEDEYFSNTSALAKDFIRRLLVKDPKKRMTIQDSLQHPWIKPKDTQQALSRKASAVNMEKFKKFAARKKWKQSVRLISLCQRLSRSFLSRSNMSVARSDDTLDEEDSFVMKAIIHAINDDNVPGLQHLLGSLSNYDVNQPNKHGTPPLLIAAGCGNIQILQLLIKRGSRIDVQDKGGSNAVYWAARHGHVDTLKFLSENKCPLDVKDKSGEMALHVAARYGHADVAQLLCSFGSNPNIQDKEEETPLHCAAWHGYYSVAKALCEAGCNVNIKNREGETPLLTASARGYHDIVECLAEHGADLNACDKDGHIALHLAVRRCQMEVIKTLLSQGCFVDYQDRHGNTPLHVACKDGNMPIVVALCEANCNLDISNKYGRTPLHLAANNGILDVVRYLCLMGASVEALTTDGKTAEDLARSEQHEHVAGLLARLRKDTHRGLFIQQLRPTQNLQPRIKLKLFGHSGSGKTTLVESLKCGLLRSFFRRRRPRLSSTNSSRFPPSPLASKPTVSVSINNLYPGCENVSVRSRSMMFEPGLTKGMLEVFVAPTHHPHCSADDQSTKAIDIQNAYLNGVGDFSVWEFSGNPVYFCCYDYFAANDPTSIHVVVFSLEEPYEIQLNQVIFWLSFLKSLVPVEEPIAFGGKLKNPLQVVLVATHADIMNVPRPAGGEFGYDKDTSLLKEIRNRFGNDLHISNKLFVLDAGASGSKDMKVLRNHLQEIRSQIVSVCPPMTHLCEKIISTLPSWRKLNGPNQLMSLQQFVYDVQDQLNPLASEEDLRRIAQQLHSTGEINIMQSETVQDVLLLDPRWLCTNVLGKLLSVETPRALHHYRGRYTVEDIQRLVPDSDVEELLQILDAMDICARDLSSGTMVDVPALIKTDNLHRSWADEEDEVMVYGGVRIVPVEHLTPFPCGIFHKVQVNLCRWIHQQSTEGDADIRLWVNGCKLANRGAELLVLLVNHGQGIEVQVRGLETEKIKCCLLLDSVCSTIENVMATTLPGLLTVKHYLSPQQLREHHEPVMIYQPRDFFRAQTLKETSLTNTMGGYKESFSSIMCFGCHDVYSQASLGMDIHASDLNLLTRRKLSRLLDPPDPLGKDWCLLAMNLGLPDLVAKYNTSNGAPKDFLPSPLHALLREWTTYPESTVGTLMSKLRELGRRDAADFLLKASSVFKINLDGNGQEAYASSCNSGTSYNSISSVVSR

[26] = target: Vascular endothelial growth factor receptor 3 (Homo sapiens) (UniProt P35916); test: Inhibition of recombinant human N-terminal GST-tagged FLT4 (800 to end residues) expressed in baculovirus infected Sf9 cells assessed as change in enzyme activity at 1 uM in presence of 2 uM ATP relative to control; design: scale not given: the % may be the effect or the level left
[27] = target: Rho-associated protein kinase 1 (Homo sapiens) (UniProt Q13464); test: Inhibition of recombinant human N-terminal GST-tagged ROCK1 (17 to 535 residues) expressed in baculovirus infected Sf9 cells assessed as change in enzyme activity at 1 uM in presence of 1 uM ATP relative to control; design: scale not given: the % may be the effect or the level left
[28] = Equilibrium aqueous solubility of the compound at pH 2.1; format: physicochemical
[29] = target: RAC-alpha serine/threonine-protein kinase (Homo sapiens) (UniProt P31749); test: Inhibition of recombinant human full length N-terminal GST-tagged AKT1 expressed in baculovirus infected Sf9 cells assessed as change in enzyme activity at 1 uM in presence of 2 uM ATP relative to control; design: scale not given: the % may be the effect or the level left

Row | Activity [1] | Activity [2] | IC50 [3] | Vd [4] | Activity [5] | Activity [6] | Activity [7] | Activity [8] | AUC/dose (Mus musculus [9]) | Drug metabolism [10] | IC50 [11] | Activity [12] | IC50 [13] | Activity [14] | Activity [16] | Cmax [17] | Activity [18] | Activity [19] | clearance [20] | SMILES | Activity (Mus musculus [15]) | further results
1 | 1% | -2% | > 10 µM | 1.9 L/kg | -5% | -49% | -2% | -4% | 27 µM·h | < 0.04 nmol/min/mg | 5.06 µM | 1% | > 10 µM | -6% | -2% | 2.3 µM | -35% | -5% | 0.276 L/h/kg | CCN1CCN(Cc2ccc(-c3cc4c(-c5cccc(N6CCOc7cc(C8CC8)cc(F)c7C6=O)c5CO)ccnc4[nH]3)nc2)CC1 | Dose-dependent effect | Activity (Mus musculus [21]): 47%; IC50 [22]: > 10 µM; IC50 [23]: 0.0084 µM; Activity [24]: -4%; Activity [25]: 2%; Activity [26]: -3%; Activity [27]: -4%; solubility thermodynamic [28]: > 2000 µM; Activity [29]: -15%
2 | -6% | -10% | > 10 µM | 0.6 L/kg | -5% | -10% | 0% | 1% | 25.8 µM·h | < 0.04 nmol/min/mg | > 30 µM | -1% | > 10 µM | 5% | 1% | 7.6 µM | -31% | -6% | 0.33 L/h/kg | O=C1c2c(F)cc(C3CC3)cc2OCCN1c1cccc(-c2ccnc3[nH]c(C4=CCN(C5COC5)CC4)cc23)c1CO | Dose-dependent effect | Activity (Mus musculus [21]): 9.5%; IC50 [22]: > 10 µM; IC50 [23]: 0.0419 µM; Activity [24]: 3%; Activity [25]: -1%; Activity [26]: -3%; Activity [27]: 3%; solubility thermodynamic [28]: > 2000 µM; Activity [29]: -3%
